According to patent US20260373248A1, “DEGRADABLE PEPTOIDS” (Medici Therapeutics, Inc., priority 2023, published 2026):
Non-standard residues stand in square brackets, D forms with d. Residues, ends and D or L forms follow the SMILES beside them. *: point of attachment. Gly(N-(3-decanoyloxypropyl)) = CCCCCCCCCC(=O)OCCCNCC(=O)O; N(3-lauroyloxypropyl)Gly = CCCCCCCCCCCC(=O)OCCCNCC(=O)O; Gly(N-(CH2)3O-octanoyl) = CCCCCCCC(=O)OCCCNCC(=O)O; N(3-imidazol-1-ylpropyl)Gly = O=C(O)CNCCCn1ccnc1; Gly(N-3-morpholinopropyl) = O=C(O)CNCCCN1CCOCC1; N(2-ethylhexyl)Gly = CCCCC(CC)CNCC(=O)O; NDecylGly = CCCCCCCCCCNCC(=O)O; NHexGly = CCCCCCNCC(=O)O; For = O=C*

Assays:
[1] = system: hEPO; experiment: Quantification of hEPO in serum after IV injection of mRNA (Human EPO ELISA); assay type: in vivo; conditions: Balb/c mice, 2.5 μg mRNA IV, serum after 6 hours
Protocol: Balb/c mice were treated with 2.5 μg of mRNA coding for human erythropoiten via IV injection according to a similar method as in Example 4. hEPO protein in the serum was quantified after 6 hours using the Human EPO ELISA Kit from Invitrogen (catalog #BMS2035-2). Wash buffer (PBS with 1% tween 20) and assay buffer (PBS with 1% tween 20, 10% BSA) were prepared from a 20× concentrate with milli-Q water. Serum samples were diluted with PBS according to expected EPO concentration, with a 50× dilution for low expression samples and up to a 30,000× dilution for samples expected to have high expression. Microwell strips were washed in a plate washer with wash buffer and tapped on an absorbent pad to remove excess buffer. 100 μL of sample diluent were added to each well that will be used for the standard curve. 50 μL of sample diluent was added to each sample well.
The standard curve was prepared by reconstituting the human erythropoietin standard by adding the volume of water listed on the vial label. Standard was swirled gently and allowed to reconstitute for 10 minutes prior to use, then 100 μL is added to standard wells and mixed well. 100 μL from standard wells were then transferred to sample wells and mixed well. This was repeated 5 times to produce 2 columns of standard dilutions from 100 to 1.6 mIU/mL. 100 μL was discarded from the last microwells. The final 2 wells contained 100 μL of sample diluent and served as a blank. An external standard was also included to facilitate a mIU/mL conversion to ng/mL. The same serial dilution method was repeated starting with the external standard at 6.25 ng/mL. Once the standards were added, 50 μL of each sample was added in duplicate to the sample wells. Next, the biotin-conjugate was prepared by diluting 1:100 in assay buffer. 50 μL of biotin-conjugate was added to all wells and the plate was covered with a plate seal and shaken at room temperature for 1 hour. During the last few minutes of shaking, streptavidin-HRP was prepared by diluting 1:100 in assay buffer. The plate was washed on a plate washer and tapped on an absorbent pad to remove remaining wash buffer.
100 μL of the diluted streptavidin-HRP was added to each well and the plate was sealed and shaken for 15 minutes at room temperature. After 15 minutes, the plate seal was removed and the plate was washed on a plate washer and remaining wash buffer tapped out on an absorbent pad. 100 μL of TMB substrate was added to all wells and the plate was incubated for 10 minutes at room temperature out of direct light. Color development was checked every few minutes and the assay was stopped when the highest standard was dark blue. The reaction was stopped by pipetting 100 μL of stop solution into each well. Immediately after stop solution was added, the plate was gently tapped to ensure the solution was mixed. Absorbance was then read at 450 nm for each well. A standard curve was plotted for both the kit-provided standards (mIU/mL) and the external standard (ng/mL) and fit using Prism. Sample absorbances that fell within the standard curve were interpolated and adjusted for dilution (including a 2× assay dilution). Samples that were not within the standard curve were repeated at an adjusted dilution.

[2] = system: firefly luciferase; experiment: In vivo firefly luciferase expression after intravenous injection of fLuc mRNA delivery vehicles (IVIS imaging); parameters: species or system female Balb/c mice; conditions: mice, 2.5 ug fLuc mRNA intravenously, 6 hours post-injection
Protocol: (§1) All animal studies were conducted under accreditation by the California State Department of Public Health and under supervision of IACUC and Veterinarian Supervision. For imaging studies, female Balb/c mice (6-8 weeks old) were obtained and acclimatized for a minimum of 3 days prior to experiments. The animals were maintained on a 12 hour light cycle in a temperature and humidity controlled room. A daily health check was performed as well as food and water check. For dosing, mice were injected with 2.5 ug fLuc mRNA-containing Nutshells intravenously in 100 μL total injection value. At 6 hours post-injection, mice were anesthetized with isoflurane, injected IP with 30 mg/mL D-luciferin at a dose of 10 μL per gram bodyweight intraperitoneally. Imaging was done 10 minutes post D-luciferin injection using an IVIS Spectrum Imaging System (Caliper Life Sciences). Immediately after in vivo imaging, mice were terminally bled by cardiac puncture and euthanized. The organs of interest were harvested, placed in black 24-well plates, and imaged. Living Image software (Perkin Elmer) was used to quantify the total photon flux in regions of interest.
Luciferase expression in these formulations was also determined as described in Example 4.

[3] = system: mRNA; experiment: mRNA encapsulation (modified Quant-iT RiboGreen assay); assay type: physicochemical; conditions: RiboGreen, without vs with Triton X-100
Protocol: The mRNA concentration and the percentage of encapsulated mRNA were determined using fluorescent-based Quant-iT RiboGreen RNA Reagent Kit (Life Technologies, Waltham, MA) as described previously. To determine the mRNA concentration, PNPs was incubated with […] for 10 min to release entrapped mRNA, followed by addition of RiboGreen RNA reagent. The fluorescence intensity of mRNA-RiboGreen reagent complex (excitation at 485 nm and emission at 530 nm) was detected using a microplate reader. The ratio of fluorescence without and with Triton X-100 were used to calculate the percentage of encapsulated mRNA.
(§2) Degradable peptoids described herein were formulated as various formulations described in Table 3 according to the procedure described in Example 2. Particle size was characterized as described in Example 2, and […] encapsulation of mRNA was determined as described in Example 3.

[4] = system: luciferase; experiment: Luciferase expression after local (intramuscular or subcutaneous) administration of mRNA; assay type: in vivo; conditions: mRNA 0.01 mpk, 6 hours; for IM Flux: intramuscular; for SC Flux: subcutaneous
Protocol: as §1
Aminolipidated peptoids were also effective for local administration of mRNA through subcutaneous (S.C.) or intramuscular (I.M.) routes of administration. For these examples, mRNA was administered at a dose of 0.1 mpk for intratomoral, or 0.01 mpk for subcutaneous and intramuscular administration, and the resulting bioluminescence quantified after 6 hours according to a similar procedure as described in Example 4.

[5] = Delivery vehicle size and polydispersity by dynamic light scattering; assay type: physicochemical; conditions: DLS in PBS; peptoid:DSPC:Cholesterol:DMG-PEG2000 weight ratio 20:1.79:7.16:1.84, mRNA
Protocol: Delivery vehicles were formulated by rapid microfluidic mixing using a high throughput microfluidic system. Briefly, ethanol solutions containing peptoid, DSPC, Cholesterol, DMG-PEG2000 at weight ratio of 20:1.79:7.16:1.84, were mixed with 10 mM sodium citrate buffer (pH 5.0) containing synthesized mRNA at a ratio of 1:3 by volume. Peptoid based LNPs were subsequently dialyzed against 1-2 liters of tris-sucrose buffer (TS7, pH 7.4) overnight at 4 °C. Delivery vehicle size and polydispersity (PDI) was measured by dynamic light scattering in PBS.
as §2

| mean percent encapsulation of RNA [3] [%] | PDI [5] | Particle Size [5] [nm] | SMILES | hEPO [1] [ng/mL] | Total Flux [2] [p/s] | IM Flux [4] [p/s] | SC Flux [4] [p/s] |
| --- | --- | --- | --- | --- | --- | --- | --- |
| 13.1 | 0.238 | 86.9 | CCCCCCCCCCCC(=O)OCCCN(CC(=O)N(CCCOC(=O)CCCCCCCCCCC)CC(=O)N(CCCCCC)CC(=O)N(CCCOC(=O)CCCCCCCCCCC)CC(=O)N(CCCOC(=O)CCCCCCCCCCC)CC(=O)N(CCCCCC)CC(N)=O)C(=O)CN(C=O)CCCN1CCOCC1 [Compound 71] (For-[Gly(N-3-morpholinopropyl)][N(3-lauroyloxypropyl)Gly][N(3-lauroyloxypropyl)Gly][NHexGly][N(3-lauroyloxypropyl)Gly][N(3-lauroyloxypropyl)Gly][NHexGly]-NH2) | 38.1 | 4.43E+08 | 3.61E+08 | 9.18E+07 |
| 40.7 | 0.245 | 119.7 | CCCCCCCCCCN(C=O)CC(=O)N(CCCOC(=O)CCCCCCC)CC(=O)N(CC(=O)N(CCCn1ccnc1)CC(=O)N(CC(=O)N(CCCOC(=O)CCCCCCC)CC(=O)N(CCCCCCCCCC)CC(N)=O)CC(CC)CCCC)CC(CC)CCCC (stereo not shown) [Compound 114] (For-[NDecylGly][Gly(N-(CH2)3O-octanoyl)][N(2-ethylhexyl)Gly][N(3-imidazol-1-ylpropyl)Gly][N(2-ethylhexyl)Gly][Gly(N-(CH2)3O-octanoyl)][NDecylGly]-NH2) | 23.7 | 2.06E+08 | 9.30E+07 | 1.03E+08 |
| 49.8 | 0.156 | 78.4 | CCCCCCCCCCN(C=O)CC(=O)N(CCCOC(=O)CCCCCCCCC)CC(=O)N(CC(=O)N(CCCN1CCOCC1)CC(=O)N(CC(=O)N(CCCOC(=O)CCCCCCCCC)CC(=O)N(CCCCCCCCCC)CC(N)=O)CC(CC)CCCC)CC(CC)CCCC (stereo not shown) [Compound 117] (For-[NDecylGly][Gly(N-(3-decanoyloxypropyl))][N(2-ethylhexyl)Gly][Gly(N-3-morpholinopropyl)][N(2-ethylhexyl)Gly][Gly(N-(3-decanoyloxypropyl))][NDecylGly]-NH2) | 685 | 5.14E+09 | 2.10E+08 | 6.43E+08 |
| 82.1 | 0.111 | 86.2 | CCCCCCCC(=O)OCCCN(C=O)CC(=O)N(CCCOC(=O)CCCCCCC)CC(=O)N(CCc1ccccc1)CC(=O)N(CC(=O)N(CCCN1CCOCC1)CC(=O)N(CCCOC(=O)CCCCCCC)CC(=O)N(CCc1ccccc1)CC(=O)N(CCCOC(=O)CCCCCCC)CC(=O)N(CC(N)=O)CC(CC)CCCC)CC(CC)CCCC (stereo not shown) [Compound 125] | 13.4 | 2.12E+09 | 9.45E+07 | 8.55E+07 |
